Experimental data taken from patent US5532218A, “3'-aziridino-anthracycline derivatives” (Farmitalia Carlo Erba S.R.L., priority 1993, dated 1996).
≈ marks a conversion by molar mass, not a printed value.

Assays:
[1] = system: LoVo (colon adenocarcinoma); assay: cells; settings: for IC50 (concentration inhibiting 50% colony formation), LoVo: colony assay, 4 h treatment; for cytotoxic activity against LoVo, in words: both cell lines
Source text: (§1) The citotoxic activity is reported as IC50, the concentration inhibiting 50% of colony formation, calculated on concentration response curves. Resistance index R.I. is the ratio between the IC50 on resistant cells and the IC50 on sensitive cells.

[2] = system: LoVo/DX (colon adenocarcinoma resistant to doxorubicin); assay: cells; settings: for resistance index, in words: LoVo/DX vs LoVo; for IC50 (concentration inhibiting 50% colony formation), LoVo/DX / R.I. = Resistance Index = (IC50 LoVo/DX)/(IC50 LoVo): colony assay, 4 h treatment; for cytotoxic activity against LoVo/DX, in words: both cell lines; for R.I. = Resistance Index = (IC50 LoVo/DX)/(IC50 LoVo): ratio LoVo/DX to LoVo
Source text: as §1

[3] = system: P388 murine leukaemia resistant to doxorubicin (P388/DX); assay: antitumor activity on P388/DX leukaemia in vivo; parameters: species or system murine (BD2F1 mice); settings: for T/C (median survival time of treated mice/median survival time of controls × 100): P388/DX 10^5 cell/mouse i.v. in BD2F1 mice, compound i.v. one day after tumor transplantation, at optimal dose; for T/C (median survival time of treated mice/median survival time of controls × 100) / O.D. (Optimal Dose): in Tween 80 (10%); for O.D. (Optimal Dose): P388/DX in BD2F1 mice, i.v. one day after tumor transplantation; for in vivo activity compared with doxorubicin, in words: P388 murine leukaemia resistant to doxorubicin, BD2F1 mice
Source text: The compounds were suspended in Tween 80 (10%) and injected i.v. one day
after tumor transplantation.
^(2) Median survival time of treated mice/Median survival time of

3'-deamino-3'-[1-aziridinyl]-4'-O-methansulfonyl daunorubicin [Compound 1a]
IC50 (concentration inhibiting 50% colony formation), LoVo ([1]; LoVo): 0.013 µg/mL | cytotoxic activity against LoVo, in words [1]: high activity | resistance index, in words [2]: low resistance index | IC50 (concentration inhibiting 50% colony formation), LoVo/DX ([2]; LoVo/DX): 0.022 µg/mL | cytotoxic activity against LoVo/DX, in words [2]: high activity | R.I. = Resistance Index = (IC50 LoVo/DX)/(IC50 LoVo) [2]: 1.7 | T/C (median survival time of treated mice/median survival time of controls × 100) [3]: 190% | O.D. (Optimal Dose) [3]: 2.2 mg/kg | in vivo activity compared with doxorubicin, in words [3]: strikingly higher activity than doxorubicin

3'-deamino-3'-[1-aziridinyl]-4'-O-methansulfonyl doxorubicin [Compound 2c]
IC50 (concentration inhibiting 50% colony formation), LoVo ([1]; LoVo): 0.0027 µg/mL | cytotoxic activity against LoVo, in words [1]: high activity | resistance index, in words [2]: low resistance index | IC50 (concentration inhibiting 50% colony formation), LoVo/DX ([2]; LoVo/DX): 0.024 µg/mL | cytotoxic activity against LoVo/DX, in words [2]: high activity | R.I. = Resistance Index = (IC50 LoVo/DX)/(IC50 LoVo) [2]: 9.2 | T/C (median survival time of treated mice/median survival time of controls × 100) [3]: 195% | O.D. (Optimal Dose) [3]: 1.8 mg/kg | in vivo activity compared with doxorubicin, in words [3]: strikingly higher activity than doxorubicin

3'-deamino-3'-[1-aziridinyl]-4'-O-methansulfonyl-14-nicotinate-doxorubicin [Compound 2a]
IC50 (concentration inhibiting 50% colony formation), LoVo ([1]; LoVo): 0.014 µg/mL | resistance index, in words [2]: low resistance index | IC50 (concentration inhibiting 50% colony formation), LoVo/DX ([2]; LoVo/DX): 0.04 µg/mL | R.I. = Resistance Index = (IC50 LoVo/DX)/(IC50 LoVo) [2]: 2.9 | T/C (median survival time of treated mice/median survival time of controls × 100) [3]: 200% | O.D. (Optimal Dose) [3]: 2.5 mg/kg | in vivo activity compared with doxorubicin, in words [3]: strikingly higher activity than doxorubicin

CC(=O)[C@]1(O)Cc2c(O)c3c(c(O)c2[C@@H](O[C@H]2C[C@H](N4CC4)[C@H](OS(C)(=O)=O)[C@H](C)O2)C1)C(=O)c1ccccc1C3=O [Compound 1b, 4-demethoxy-3'-deamino-3'-[1-aziridinyl]-4'-O-methansulfonyl daunorubicin]
IC50 ([1]; Homo sapiens, LoVo, 4 h, read-out: IC50 (concentration inhibiting 50% colony formation), LoVo): 0.027 µg/mL (≈ 0.0449 µM) | cytotoxic activity against LoVo, in words [1]: high activity | IC50 ([2]; Homo sapiens, LoVo/DX, 4 h, read-out: IC50 (concentration inhibiting 50% colony formation), LoVo/DX): 0.026 µg/mL (≈ 0.0432 µM) | resistance index, in words [2]: low resistance index | cytotoxic activity against LoVo/DX, in words [2]: high activity | R.I. = Resistance Index = (IC50 LoVo/DX)/(IC50 LoVo) [2]: 0.9 | T/C (median survival time of treated mice/median survival time of controls × 100) [3]: 240% | O.D. (Optimal Dose) [3]: 3.8 mg/kg | in vivo activity compared with doxorubicin, in words [3]: strikingly higher activity than doxorubicin

COc1cccc2c1C(=O)c1c(O)c3c(c(O)c1C2=O)C[C@@](O)(C(=O)CO)C[C@@H]3O[C@H]1C[C@H](N)[C@H](O)[C@H](C)O1 [doxorubicin, reference compound]
O.D. (Optimal Dose) [3]: 16.9 mg/kg
